What all share (format): in vivo
One experiment relates to Plasmopara viticola. The experiment can be described thus: Test B: grape downy mildew, spray 24 h after inoculation (disease rating, 100 = 100% disease control). The text has this: (§1) The test compounds were first dissolved in acetone in an amount equal to 3% of the final volume and then suspended at the desired concentration (in ppm) in acetone and purified water (50/50 mix by volume) containing 250 ppm of the surfactant Trem® 014 (polyhydric alcohol esters). The resulting test suspensions were then used in tests A-E. Spraying a 200 ppm test suspension to the point of run-off on the test plants was the equivalent of a rate of 500 g/ha.
Grape seedlings were inoculated with a spore suspension of Plasmopara viticola (the causal agent of grape downy mildew) and incubated in a saturated atmosphere at 20° C. for 24 h. After a short drying period, the test suspension was sprayed to the point of run-off on the grape seedlings and then moved to a growth chamber at 20° C. for 5 days, after which the test units were placed back into a saturated atmosphere at 20° C. for 24 h. Upon removal, disease ratings were made.
(§2) Results for Tests A-F are given in Table A. In the table, a rating of 100 indicates 100% disease control and a rating of 0 indicates no disease control (relative to the controls). A dash (-) indicates no test results.

Experiment [1] concerns Phytophthora infestans. The experiment can be described thus: whole plant or invertebrate. The note with it: for Test C disease rating (100 = 100% disease control, 0 = no disease control): tomato late blight.
The test system of experiment [2] is Erysiphe graminis f. sp. tritici. The experiment can be described thus: Test E: wheat powdery mildew, spray the day before inoculation (disease rating, 100 = 100% disease control).
Text: as §1
The test suspension was sprayed to the point of run-off on wheat seedlings. The following day the seedlings were inoculated with a spore dust of Erysiphe graminis f. sp. tritici, (the causal agent of wheat powdery mildew) and incubated in a growth chamber at 20° C. for 7 days, after which disease ratings were made.
as §2

Experiment [3] relates to Phytophthora infestans. In words: whole plant or invertebrate. As to conditions: for Test D disease rating (100 = 100% disease control, 0 = no disease control): tomato late blight.
Where [4] appears, read: spray the day before inoculation, tested at 40 ppm.
[5] abbreviates: Plasmopara viticola, 144 h, spray 24 h after inoculation, tested at 40 ppm, read-out: Test B disease rating (100 = 100% disease control, 0 = no disease control).
Where [6] appears, read: Phytophthora infestans, in Solanum lycopersicum, 144 h, read-out: Test C disease rating (100 = 100% disease control, 0 = no disease control).
The mark [7] stands for this setting: Blumeria graminis, topical, 168 h, spray the day before inoculation, tested at 40 ppm, read-out: Test E disease rating (100 = 100% disease control, 0 = no disease control).
The mark [8] stands for this setting: Phytophthora infestans, in Solanum lycopersicum, topical, 96 h, read-out: Test D disease rating (100 = 100% disease control, 0 = no disease control).

Where two headings read alike, the source gives them in different places.

`Cc1cc(C(F)(F)F)nn1CC(=O)N1CCC(c2nc(C(=O)N(C)C3c4ccccc4CC3O)cs2)CC1` (racemic) [compound 200]: the “Test B disease rating (100 = 100% disease control, 0 = no disease control)” value in the experiment with Plasmopara viticola (spray 24 h after inoculation, tested at 40 ppm) is reported as 39%. In the experiment with Phytophthora infestans [1] (setting [4]), the “Test C disease rating (100 = 100% disease control, 0 = no disease control)” value stood at 98%. Moreover, in experiment [2] (setting [4]), the “Test E disease rating (100 = 100% disease control, 0 = no disease control)” value is listed as 0%. In the experiment on Phytophthora infestans [3] (spray 17 h after inoculation, tested at 40 ppm), the “Test D disease rating (100 = 100% disease control, 0 = no disease control)” value is 98%.

For `Cc1cc(C(F)(F)F)nn1CC(=O)N1CCC(c2nc(C(=O)N(C)[C@@H]3CCCc4ccccc43)co2)CC1` [Compound 151, N-methyl-2-[1-[[5-methyl-3-(trifluoromethyl)-1H-pyrazol-1-yl]acetyl]-4-piperidinyl]-N-[(1R)-1,2,3,4-tetrahydro-1-naphthalenyl]-4-oxazolecarboxamide], the pest or weed control at 40 ppm in the experiment on Plasmopara viticola (setting [5]) amounted to 99%; in the experiment with Phytophthora infestans [1] (setting [6]), 100%; in experiment [2] (setting [7]) it was 0%; in the experiment on Phytophthora infestans [3] (setting [8]), 99%.

As to `CC[C@H](c1ccccc1)N(C)C(=O)c1coc(C2CCN(C(=O)Cn3nc(C(F)(F)F)cc3C)CC2)n1` [Compound 152, N-methyl-2-[1-[[5-methyl-3-(trifluoromethyl)-1H-pyrazol-1-yl]acetyl]-4-piperidinyl]-N-[(1R)-1-phenylpropyl]-4-oxazolecarboxamide], the pest or weed control at 40 ppm with Plasmopara viticola (setting [5]) was 99%; with Phytophthora infestans [1] (setting [6]), 100%; in experiment [2] (setting [7]) it was 0%; with Phytophthora infestans [3] (setting [8]) it was 99%.

For `Cc1ccc(C)c(CC(=O)N2CCC(c3nc(C(=O)N(C)[C@@H]4CCCc5ccccc54)co3)CC2)c1` [Compound 153, 2-[1-[(2,5-dimethylphenyl)acetyl]-4-piperidinyl]-N-methyl-N-[(1R)-1,2,3,4-tetrahydro-1-naphthalenyl]-4-oxazolecarboxamide], the pest or weed control at 40 ppm with Plasmopara viticola (setting [5]) was determined as 99%; with Phytophthora infestans [1] (setting [6]), 100%; in experiment [2] (setting [7]), 0%; in the experiment with Phytophthora infestans [3] (setting [8]) it was 98%.

With `CC[C@H](c1ccccc1)N(C)C(=O)c1coc(C2CCN(C(=O)Cc3cc(C)ccc3C)CC2)n1` [Compound 154, 2-[1-[(2,5-dimethylphenyl)acetyl]-4-piperidinyl]-N-methyl-N-[(1R)-1-phenylpropyl]-4-oxazolecarboxamide], the pest or weed control at 40 ppm in the experiment on Plasmopara viticola (setting [5]) was found to be 99%; in the experiment on Phytophthora infestans [1] (setting [6]), 100%; in experiment [2] (setting [7]) it was 0%; in the experiment on Phytophthora infestans [3] (setting [8]), 68%.

For `Cc1cc(C(F)(F)F)nn1CC(=O)N1CCC(c2nc(C(=O)N(C)C3CCC(=O)c4ccccc43)cs2)CC1` (centres unmarked) [Compound 211, N-methyl-2-[1-[[5-methyl-3-(trifluoromethyl)-1H-pyrazol-1-yl]acetyl]-4-piperidinyl]-N-(1,2,3,4-tetrahydro-4-oxo-1-naphthalenyl)-4-thiazolecarboxamide], the pest or weed control at 40 ppm with Plasmopara viticola (setting [5]) is 99%; in the experiment with Phytophthora infestans [1] (setting [6]), 100%; in experiment [2] (setting [7]) it was 0%; in the experiment with Phytophthora infestans [3] (setting [8]), 99%.

On to `Cc1cc(C(F)(F)F)nn1CC(=O)N1CC=C(c2nc(C(=O)N(C)[C@@H]3CCCc4ccccc43)cs2)CC1` [Compound 218, N-methyl-2-[1,2,3,6-tetrahydro-1-[[5-methyl-3-(trifluoromethyl)-1H-pyrazol-1-yl]acetyl]-4-pyridinyl]-N-[(1R)-1,2,3,4-tetrahydro-1-naphthalenyl]-4-thiazolecarboxamide], for which the pest or weed control at 40 ppm in the experiment with Plasmopara viticola (setting [5]) was determined as 91%; with Phytophthora infestans [1] (setting [6]) it was 100%; in experiment [2] (setting [7]) it was 0%; in the experiment on Phytophthora infestans [3] (setting [8]), 99%.

As to `Cc1cc(C(F)(F)F)nn1CC(=O)N1CCN(c2nc(C(=O)N(C)[C@@H]3CCCc4ccccc43)cs2)CC1` [Compound 220, N-methyl-2-[4-[[5-methyl-3-(trifluoromethyl)-1H-pyrazol-1-yl]acetyl]-1-piperazinyl]-N-[(1R)-1,2,3,4-tetrahydro-1-naphthalenyl]-4-thiazolecarboxamide], the pest or weed control at 40 ppm is 95% in the experiment on Plasmopara viticola (setting [5]), 100% in the experiment on Phytophthora infestans [1] (setting [6]), 0% in experiment [2] (setting [7]) and 98% with Phytophthora infestans [3] (setting [8]).

Consider `Cc1cc(C(F)(F)F)nn1CC(=O)N1CCC(c2nc(C(=O)N(C)C3c4ccccc4CC3(C)C)cs2)CC1` (centres unmarked) [Compound 222, N-(2,3-dihydro-2,2-dimethyl-1H-inden-1-yl)-N-methyl-2-[1-[[5-methyl-3-(trifluoromethyl)-1H-pyrazol-1-yl]acetyl]-4-piperidinyl]-4-thiazolecarboxamide], for which the pest or weed control at 40 ppm was 100% in the experiment with Plasmopara viticola (setting [5]), 100% in the experiment on Phytophthora infestans [1] (setting [6]), 0% in experiment [2] (setting [7]) and 99% in the experiment on Phytophthora infestans [3] (setting [8]).

On to `Cc1cc(C(F)(F)F)nn1CC(=O)N1CCC(c2nc(C(=O)N(C)C3c4ccccc4CC3C)cs2)CC1` (centres unmarked) [Compound 226, N-(2,3-dihydro-2-methyl-1H-inden-1-yl)-N-methyl-2-[1-[[5-methyl-3-(trifluoromethyl)-1H-pyrazol-1-yl]acetyl]-4-piperidinyl]-4-thiazolecarboxamide], for which the pest or weed control at 40 ppm in the experiment on Plasmopara viticola (setting [5]) turned out to be 100%; in the experiment with Phytophthora infestans [1] (setting [6]) it was 100%; in experiment [2] (setting [7]), 0%; in the experiment with Phytophthora infestans [3] (setting [8]) it was 99%.

In the case of `Cc1cc(C(F)(F)F)nn1CC(=O)N1CCC(n2cc(C(=O)N(C)[C@@H]3CCCc4ccccc43)cn2)CC1` [Compound 233, N-methyl-1-[1-[[5-methyl-3-(trifluoromethyl)-1H-pyrazol-1-yl]acetyl]-4-piperidinyl]-N-[(1R)-1,2,3,4-tetrahydro-1-naphthalenyl]-1H-pyrazole-4-carboxamide], the pest or weed control at 40 ppm in the experiment with Plasmopara viticola (setting [5]) was 99%; in the experiment with Phytophthora infestans [1] (setting [6]), 100%; in experiment [2] (setting [7]) it was 0%; in the experiment on Phytophthora infestans [3] (setting [8]), 99%.

In the case of `CN(C(=O)c1csc(C2CCN(C(=O)Cn3nc(Cl)cc3Cl)CC2)n1)[C@@H]1CCCc2ccccc21` [Compound 238, 2-[1-[(3,5-dichloro-1H-pyrazol-1-yl)acetyl]-4-piperidinyl]-N-methyl-N-[(1R)-1,2,3,4-tetrahydro-1-naphthalenyl]-4-thiazolecarboxamide], the pest or weed control at 10 ppm in the experiment on Plasmopara viticola (Plasmopara viticola, 144 h, spray 24 h after inoculation, tested at 10 ppm, read-out: Test B disease rating (100 = 100% disease control, 0 = no disease control)) came to 100%; with Phytophthora infestans [1] (setting [6]), 100%; in experiment [2] (Blumeria graminis, topical, 168 h, spray the day before inoculation, tested at 10 ppm, read-out: Test E disease rating (100 = 100% disease control, 0 = no disease control)), 0%; in the experiment on Phytophthora infestans [3] (setting [8]), 99%.

For the compound `CN(C(=O)c1csc(C2CCN(C(=O)Cn3nc(C(F)(F)F)cc3Cl)CC2)n1)[C@@H]1CCCc2ccccc21` [Compound 249, 2-[1-[[5-chloro-3-(trifluoromethyl)-1H-pyrazol-1-yl]acetyl]-4-piperidinyl]-N-methyl-N-[(1R)-1,2,3,4-tetrahydro-1-naphthalenyl]-4-thiazolecarboxamide], the pest or weed control at 40 ppm with Plasmopara viticola (setting [5]) worked out at 100%; in the experiment with Phytophthora infestans [1] (setting [6]) it was 100%; in experiment [2] (setting [7]) it was 0%; with Phytophthora infestans [3] (setting [8]) it was 99%.

For `Cc1cc(C(F)(F)F)nn1CC(=O)N1CCC(c2nc(C(=S)N(C)[C@@H]3CCCc4ccccc43)cs2)CC1` [Compound 289, N-methyl-2-[1-[[5-methyl-3-(trifluoromethyl)-1H-pyrazol-1-yl]acetyl]-4-piperidinyl]-N-[(1R)-1,2,3,4-tetrahydro-1-naphthalenyl]-4-thiazolecarbothioamide], the “Test B disease rating (100 = 100% disease control, 0 = no disease control)” value in the experiment on Plasmopara viticola (sprayed 24 h after inoculation, tested at 40 ppm (*)) is given as 100. The “Test C disease rating (100 = 100% disease control, 0 = no disease control)” value in the experiment on Phytophthora infestans [1] (sprayed the day before inoculation, tested at 40 ppm (*)) stood at 100. The “Test E disease rating (100 = 100% disease control, 0 = no disease control)” value in experiment [2] (sprayed the day before inoculation, 7 days at 20° C., tested at 40 ppm (*)) turned out to be 65. For the same compound, the “Test D disease rating (100 = 100% disease control, 0 = no disease control)” value in the experiment with Phytophthora infestans [3] (sprayed 17 h after inoculation, tested at 40 ppm (*)) is on record as 99.

These data come from US8586611B2 (priority 2005, dated 2013).
